Target: T1, hKv1.1 (Homo sapiens, UniProt Q09470)
T1 construct: expressed in transfected cells; host or cells: CHO-K1
Experiment: voltage-clamp of K+ currents in CHO-K1 cells expressing hKv1.1
Format: cell-based
Source text: As measure of Ifast, peak current was used, whereas, as a measure of Islow, the current value was obtained at the end of the command pulse (see FIG. 1). Values are expressed as mean±S.E.M. For Islow, a dual phase relationship can be observed. […] Kv1.3 channel is the most sensitive channel (around 6-fold more sensitive in comparison to the “next most sensitive one”, the Kv1.2) Kv1.2, Kv1.1 and Kv1.6 show similar, intermediate sensitivities to nitenin. In opposition, Kv1.4 is the less sensitive (˜31 times less sensitive).
Additionally, drug sensitivity to different voltage-activated channels was assessed by studying the drug effect on currents recorded from chinese hamster ovary (CHO) cells stably transfected with different human Kv channel subunits (Kv1.1, Kv1.2, Kv1.3, Kv1.4 and Kv1.6).
The higher sensitivity of nitenin to Islow (rather than Ifast) and the nature of the nitenin sensitive current (see nitenin sensitive current in FIG. 1.b) urged to understand which K^+ channel(s) do underline Islow. By considering which Kv channel subunits are known to be expressed in DRG, and the biophysical nature of the nitenin-sensitive current, nitenin was tested on whole-cell currents recorded from CHO cells expressing hKv1.1, hKv1.2, hKv1.3, hKv1.4 and hKv1.6. […] Current inhibition was measured at the end of the 1000 ms pulse.

T1 sequence (Q09470 whole entry): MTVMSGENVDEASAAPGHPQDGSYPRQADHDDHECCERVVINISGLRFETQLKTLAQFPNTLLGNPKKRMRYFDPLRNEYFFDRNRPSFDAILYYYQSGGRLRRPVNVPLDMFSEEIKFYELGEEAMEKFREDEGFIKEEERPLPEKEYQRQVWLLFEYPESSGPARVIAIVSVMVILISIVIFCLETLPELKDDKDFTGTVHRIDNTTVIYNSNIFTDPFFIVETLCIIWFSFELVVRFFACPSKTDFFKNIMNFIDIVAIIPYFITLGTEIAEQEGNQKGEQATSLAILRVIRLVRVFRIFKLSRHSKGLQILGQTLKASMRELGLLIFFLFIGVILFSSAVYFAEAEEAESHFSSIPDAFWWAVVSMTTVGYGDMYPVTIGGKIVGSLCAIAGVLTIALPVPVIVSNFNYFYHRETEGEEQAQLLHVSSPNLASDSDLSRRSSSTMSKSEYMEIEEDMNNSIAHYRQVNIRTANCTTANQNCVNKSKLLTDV

C/C(=C\C1C/C(=C/CCc2ccoc2)C(=O)O1)CCCc1ccoc1 (stereo not shown) [nitenin]
lower sensitivity of hKv1.1 relative to Kv1.3: ~6 ×

Source: patent publication US12336977B2, “Nitenin analogue compounds and their use in the treatment of chronic and acute pain” (SEA4US-BIOTECNOLOGIA E RECURSOS MARINHOS, LDA., priority 2019, dated 2025)
